Data as given in ChEMBL document CHEMBL1201862, “PubChem BioAssay data set” (2004).
Calls of active or inactive are those of the source.

Experiments:
[1] = target: Nucleotide-binding oligomerization domain-containing protein 2 (Homo sapiens, UniProt Q9HC29); test: NOD2 signaling inhibitors, cell-based, luminescence, uHTS, HEK293 (AID 1566); type: functional
HEK293 [2] = test: NOD1 signaling inhibitors, primary screen, cell-based, luminescence, uHTS (AID 1578); type: functional; conditions: Homo sapiens
HEK293 [3] = test: cells; type: functional, cell-based; conditions: Homo sapiens
HEK293 [4] = test: cells; type: functional, cell-based; conditions: Homo sapiens; remark: listed apart in the source
HEK293 [5] = test: NOD2 signaling inhibitors in MDP-stimulated cells, cell-based, uHTS, luminescence (AID 2001); type: functional; conditions: Homo sapiens
[6] = growth suppression of beta-catenin-knockout colon cells, dose response, cell-based, HCT116, human colon tumor (AID 1045); type: functional;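 also: HCT116 colon tumor cells with beta catenin knocked out; cells exposed to compound for 60 hours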
[7] = growth suppression of PTEN-null colon cells, dose response, cell-based, HCT116 PTEN knockout (AID 1047); type: functional;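 also: HCT116 colon tumor cells with PTEN knocked out; cells exposed to compound for 60 hours before readout; potency for loss of cell viability measured by luminescence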
Vero [8] = test: cells; type: functional; conditions: Chlorocebus sabaeus
Vero [9] = test: cells; type: functional, cell-based; conditions: Chlorocebus sabaeus
INS1 = test: beta cell apoptosis inhibitors, cytokine rescue, dose response, luminescence, retest (AID 449756); type: functional, cell-based; conditions: Rattus norvegicus;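 also: cell death triggered by IL-1 beta plus TNF-alpha plus IFN-gamma mixture; protective hits raise ATP signal compared with cytokine alone wells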
[10] = inhibitors of SNCA 5'UTR-driven reporter translation, confirmation, H4 neuroglioma cells, luminescence (AID 1988); type: functional, cell-based
[11] = cytotoxicity in HEK-293T cells, dose response, cytotoxicity control for TCR NF-kB inhibitor project, luminescence, T-cell screen hits (AID 489026); type: functional, cell-based;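 also: cells exposed to compound about 14 hours before the viability readout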
[12] = Luminescence Cell-Based Dose Response HTS to Identify Inhibitors of 5'UTR Stem-Loop Driven Prion Protein mRNA Translation in H4 Neuroglioblastoma Cells. [Related pubchem assays: 1827 (Project Summary), 1813 (Primary HTS)]; type: functional
[13] = inhibitors of firefly luciferase expression or activity, dose response, H4 neuroglioma cells, luminescence (AID 1990); type: functional, cell-based
[14] = target: T1, Voltage-gated N-type calcium channel alpha-1B subunit/Amyloid beta A4 precursor protein-binding family A member 1 (Homo sapiens, UniProt Q00975+Q02410); type: protein assay
[15] = target: T1, Voltage-gated N-type calcium channel alpha-1B subunit/Amyloid beta A4 precursor protein-binding family A member 1; type: protein assay; remark: listed apart in the source
Cytochrome P450 2D6 = Cytochrome P450 2D6 (Homo sapiens, UniProt P10635);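 also: CYP2D6 member of a cytochrome P450 panel assay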
Cytochrome P450 3A4 = Cytochrome P450 3A4 (Homo sapiens, UniProt P08684);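 also: CYP3A4 tested as one member of a cytochrome P450 panel screen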
[16] = non-specific cell cytotoxicity, dose response, cytotoxicity control for PAX8 inhibitor project, plate reader, dry powder samples (AID 743021); type: functional, cell-based
[17] = target: T2, Heat shock factor protein 1 (Mus musculus, UniProt P38532); test: HSF1 potentiators in luciferase reporter cells, confirmation, cell-based, NIH3T3, luminescence, dose retest (AID 435004); type: functional;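 also: stress induced by proteasome inhibitor MG132 added 30 min after compound; luciferase reporter driven by HSF1 response element in NIH3T3 cells; actives raise luminescence as potentiators of the MG132 stress response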
T2 sequence (P38532 whole entry): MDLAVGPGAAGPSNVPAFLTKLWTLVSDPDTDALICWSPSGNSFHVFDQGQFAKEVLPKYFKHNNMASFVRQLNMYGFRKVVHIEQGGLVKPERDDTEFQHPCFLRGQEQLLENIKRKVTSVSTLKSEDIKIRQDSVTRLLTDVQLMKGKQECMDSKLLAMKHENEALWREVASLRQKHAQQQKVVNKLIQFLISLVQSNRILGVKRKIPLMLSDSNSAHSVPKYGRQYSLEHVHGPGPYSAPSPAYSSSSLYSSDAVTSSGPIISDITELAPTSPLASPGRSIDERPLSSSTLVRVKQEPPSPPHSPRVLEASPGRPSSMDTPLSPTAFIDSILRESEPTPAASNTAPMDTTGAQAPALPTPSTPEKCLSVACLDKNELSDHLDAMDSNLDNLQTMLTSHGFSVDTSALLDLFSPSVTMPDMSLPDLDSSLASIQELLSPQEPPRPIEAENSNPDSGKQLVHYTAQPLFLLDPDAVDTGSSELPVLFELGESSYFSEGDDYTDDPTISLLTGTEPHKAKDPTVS

Paired box protein Pax-8 = Paired box protein Pax-8 (Homo sapiens, UniProt Q06710); test: inhibitors of PAX8-driven TPO luciferase reporter, dose response, RMG-I cells, cherry-pick (AID 687027); type: functional, cell-based;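 also: luciferase reporter driven by Pax8 target thyroperoxidase promoter measured by SteadyGlo luminescence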
Genome polyprotein = Genome polyprotein (dengue virus type 2, UniProt P29990); test: Dengue-2 NS5 methyltransferase inhibitors, primary screen, biochemical, confirmation dose response (AID 588689); type: functional
[18] = target: T3, Rac GTPase-activating protein 1 (Homo sapiens, UniProt Q9H0H5); test: MgcRacGAP GTPase-activating activity inhibitors, confirmation, biochemical, ADP Hunter fluorescence, primary and confirmatory (AID 624330); type: functional
T3 sequence (Q9H0H5 whole entry): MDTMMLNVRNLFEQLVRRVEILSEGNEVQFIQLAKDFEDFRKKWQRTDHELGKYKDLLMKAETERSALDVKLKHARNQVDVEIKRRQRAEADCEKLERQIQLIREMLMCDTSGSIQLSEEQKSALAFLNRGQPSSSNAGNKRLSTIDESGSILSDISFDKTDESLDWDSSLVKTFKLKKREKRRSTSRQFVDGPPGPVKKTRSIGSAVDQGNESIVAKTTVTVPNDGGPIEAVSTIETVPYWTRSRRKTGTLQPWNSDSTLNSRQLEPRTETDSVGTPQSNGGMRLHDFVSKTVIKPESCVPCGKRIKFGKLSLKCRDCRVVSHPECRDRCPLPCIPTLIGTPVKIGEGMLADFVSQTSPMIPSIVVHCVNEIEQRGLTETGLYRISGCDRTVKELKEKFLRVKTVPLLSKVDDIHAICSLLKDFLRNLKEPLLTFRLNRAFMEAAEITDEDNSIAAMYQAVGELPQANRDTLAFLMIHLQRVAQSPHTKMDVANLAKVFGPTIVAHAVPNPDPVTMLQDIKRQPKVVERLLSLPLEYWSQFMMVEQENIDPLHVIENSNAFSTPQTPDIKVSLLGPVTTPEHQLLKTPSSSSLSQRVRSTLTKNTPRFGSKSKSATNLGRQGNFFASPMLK

[19] = cytotoxicity in HEK-293T cells, dose response, cytotoxicity control for BCR NF-kB inhibitor project, luminescence, B-cell screen hits (AID 489021); type: functional, cell-based;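 also: HEK-293T cells carrying an NF-kB luciferase reporter; cells exposed to compound for about 14 hours before viability readout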
[20] = target: T4, Microphthalmia-associated transcription factor (Homo sapiens, UniProt O75030); test: TRPM1 promoter luciferase signal decrease, dose response, MITF inhibitor project, cell-based, SK-MEL-5, cherry-picked, set 3 (AID 493073); type: functional
T4 sequence (O75030 whole entry): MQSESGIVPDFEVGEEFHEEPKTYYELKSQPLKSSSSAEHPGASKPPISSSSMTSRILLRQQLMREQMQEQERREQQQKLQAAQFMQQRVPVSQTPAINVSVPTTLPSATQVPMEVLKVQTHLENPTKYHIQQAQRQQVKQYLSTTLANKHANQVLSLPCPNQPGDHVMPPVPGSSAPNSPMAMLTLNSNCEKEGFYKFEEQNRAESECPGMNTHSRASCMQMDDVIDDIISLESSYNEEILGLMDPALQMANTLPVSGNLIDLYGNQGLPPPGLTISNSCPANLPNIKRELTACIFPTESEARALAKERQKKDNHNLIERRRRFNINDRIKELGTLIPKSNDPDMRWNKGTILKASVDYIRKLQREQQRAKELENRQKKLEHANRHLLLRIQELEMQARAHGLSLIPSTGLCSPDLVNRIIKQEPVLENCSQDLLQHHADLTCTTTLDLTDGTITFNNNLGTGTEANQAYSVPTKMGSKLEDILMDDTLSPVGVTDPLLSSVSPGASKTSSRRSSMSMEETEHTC

T1 sequence (Q00975 whole entry): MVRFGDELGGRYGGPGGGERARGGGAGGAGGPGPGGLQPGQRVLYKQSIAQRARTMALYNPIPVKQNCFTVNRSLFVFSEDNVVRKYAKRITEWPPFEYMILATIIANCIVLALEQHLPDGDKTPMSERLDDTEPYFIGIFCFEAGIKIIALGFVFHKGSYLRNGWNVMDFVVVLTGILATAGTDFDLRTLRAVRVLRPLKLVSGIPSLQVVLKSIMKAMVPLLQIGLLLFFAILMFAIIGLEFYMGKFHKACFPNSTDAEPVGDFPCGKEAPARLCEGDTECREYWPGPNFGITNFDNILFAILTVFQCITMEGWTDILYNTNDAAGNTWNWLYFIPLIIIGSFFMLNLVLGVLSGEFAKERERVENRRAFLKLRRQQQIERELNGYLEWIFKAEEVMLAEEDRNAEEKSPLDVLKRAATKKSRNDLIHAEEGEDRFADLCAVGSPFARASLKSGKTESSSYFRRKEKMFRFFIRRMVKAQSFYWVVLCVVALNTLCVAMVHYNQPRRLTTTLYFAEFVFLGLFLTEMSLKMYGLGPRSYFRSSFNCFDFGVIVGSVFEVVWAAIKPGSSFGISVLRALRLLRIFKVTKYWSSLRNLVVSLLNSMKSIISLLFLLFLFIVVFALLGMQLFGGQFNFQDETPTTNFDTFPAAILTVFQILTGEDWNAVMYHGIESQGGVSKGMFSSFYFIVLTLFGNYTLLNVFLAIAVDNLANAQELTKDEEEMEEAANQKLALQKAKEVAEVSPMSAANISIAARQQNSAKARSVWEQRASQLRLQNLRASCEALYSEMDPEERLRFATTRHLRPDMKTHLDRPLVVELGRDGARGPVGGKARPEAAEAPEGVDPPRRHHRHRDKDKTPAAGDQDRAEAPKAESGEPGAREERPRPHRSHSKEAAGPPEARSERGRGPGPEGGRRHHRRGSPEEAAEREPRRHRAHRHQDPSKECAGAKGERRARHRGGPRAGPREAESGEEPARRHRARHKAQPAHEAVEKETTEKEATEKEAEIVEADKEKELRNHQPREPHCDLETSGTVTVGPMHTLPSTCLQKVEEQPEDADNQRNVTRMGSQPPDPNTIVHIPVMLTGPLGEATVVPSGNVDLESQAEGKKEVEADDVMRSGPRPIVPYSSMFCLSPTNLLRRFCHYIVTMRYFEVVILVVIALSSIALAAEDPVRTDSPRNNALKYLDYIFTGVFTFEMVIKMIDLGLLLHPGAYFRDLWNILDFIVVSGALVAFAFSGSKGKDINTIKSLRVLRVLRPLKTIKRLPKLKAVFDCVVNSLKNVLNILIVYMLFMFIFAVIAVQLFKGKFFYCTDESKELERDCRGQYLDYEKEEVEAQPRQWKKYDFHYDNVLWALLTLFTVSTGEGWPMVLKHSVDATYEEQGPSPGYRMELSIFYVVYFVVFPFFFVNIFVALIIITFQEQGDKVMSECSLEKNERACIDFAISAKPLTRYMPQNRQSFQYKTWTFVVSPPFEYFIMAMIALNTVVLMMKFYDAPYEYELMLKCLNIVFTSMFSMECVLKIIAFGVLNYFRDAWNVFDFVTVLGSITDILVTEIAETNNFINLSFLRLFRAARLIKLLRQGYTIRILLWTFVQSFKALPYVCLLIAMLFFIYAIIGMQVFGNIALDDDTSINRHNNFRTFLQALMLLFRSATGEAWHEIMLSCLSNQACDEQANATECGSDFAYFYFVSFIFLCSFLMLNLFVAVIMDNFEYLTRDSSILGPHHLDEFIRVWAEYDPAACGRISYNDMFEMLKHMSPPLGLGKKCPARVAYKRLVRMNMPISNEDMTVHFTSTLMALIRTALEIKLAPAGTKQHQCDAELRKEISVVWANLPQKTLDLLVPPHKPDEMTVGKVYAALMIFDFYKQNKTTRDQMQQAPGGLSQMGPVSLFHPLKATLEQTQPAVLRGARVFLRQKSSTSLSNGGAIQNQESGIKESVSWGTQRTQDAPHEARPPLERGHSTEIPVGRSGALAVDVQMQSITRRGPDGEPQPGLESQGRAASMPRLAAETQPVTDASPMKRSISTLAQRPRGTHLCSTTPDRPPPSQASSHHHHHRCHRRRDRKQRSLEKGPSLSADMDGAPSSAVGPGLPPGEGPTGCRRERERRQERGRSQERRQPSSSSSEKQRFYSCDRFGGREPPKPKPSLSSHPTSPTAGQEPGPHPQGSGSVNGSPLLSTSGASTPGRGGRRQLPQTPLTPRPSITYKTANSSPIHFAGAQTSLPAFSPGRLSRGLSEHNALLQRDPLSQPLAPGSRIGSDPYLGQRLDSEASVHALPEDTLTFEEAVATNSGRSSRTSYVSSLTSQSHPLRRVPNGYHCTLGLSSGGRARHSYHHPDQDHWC
T1 sequence (Q02410 whole entry): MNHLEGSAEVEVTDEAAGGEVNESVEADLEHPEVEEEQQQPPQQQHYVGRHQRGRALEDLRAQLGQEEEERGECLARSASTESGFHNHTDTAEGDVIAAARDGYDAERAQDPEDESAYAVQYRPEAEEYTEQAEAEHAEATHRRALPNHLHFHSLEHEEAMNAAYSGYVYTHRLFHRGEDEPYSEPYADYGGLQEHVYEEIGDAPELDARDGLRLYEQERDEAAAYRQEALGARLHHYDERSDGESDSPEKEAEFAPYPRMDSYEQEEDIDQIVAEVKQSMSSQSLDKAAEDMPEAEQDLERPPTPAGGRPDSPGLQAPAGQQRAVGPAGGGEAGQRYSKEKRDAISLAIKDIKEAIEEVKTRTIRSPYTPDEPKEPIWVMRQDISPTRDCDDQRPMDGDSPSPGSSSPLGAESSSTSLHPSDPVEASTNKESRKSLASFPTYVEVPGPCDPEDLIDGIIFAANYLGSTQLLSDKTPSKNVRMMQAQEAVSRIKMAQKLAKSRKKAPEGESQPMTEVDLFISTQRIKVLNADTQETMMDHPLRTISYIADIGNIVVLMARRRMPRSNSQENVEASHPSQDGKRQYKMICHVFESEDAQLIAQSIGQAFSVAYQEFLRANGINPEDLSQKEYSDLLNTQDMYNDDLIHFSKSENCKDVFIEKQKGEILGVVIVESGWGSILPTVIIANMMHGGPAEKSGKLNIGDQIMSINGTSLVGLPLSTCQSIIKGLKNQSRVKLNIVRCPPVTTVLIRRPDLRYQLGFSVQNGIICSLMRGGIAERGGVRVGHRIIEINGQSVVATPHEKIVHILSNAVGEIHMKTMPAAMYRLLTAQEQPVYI
Chain of Cytochrome P450 3A4 (P08684 whole entry): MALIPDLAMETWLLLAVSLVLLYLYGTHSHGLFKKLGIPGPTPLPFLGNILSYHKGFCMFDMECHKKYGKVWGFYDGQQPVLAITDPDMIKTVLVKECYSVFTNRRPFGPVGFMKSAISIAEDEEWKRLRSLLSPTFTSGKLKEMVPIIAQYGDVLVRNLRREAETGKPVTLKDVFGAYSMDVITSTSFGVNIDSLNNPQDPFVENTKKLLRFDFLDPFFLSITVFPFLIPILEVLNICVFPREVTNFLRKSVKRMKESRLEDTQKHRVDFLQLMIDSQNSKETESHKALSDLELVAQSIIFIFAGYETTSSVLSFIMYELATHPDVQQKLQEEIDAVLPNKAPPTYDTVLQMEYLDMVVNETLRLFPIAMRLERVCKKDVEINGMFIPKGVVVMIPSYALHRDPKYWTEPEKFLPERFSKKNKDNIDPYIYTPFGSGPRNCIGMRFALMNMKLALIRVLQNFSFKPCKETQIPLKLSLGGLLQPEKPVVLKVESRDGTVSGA
Chain of Genome polyprotein (P29990 2492-3391 limits assumed): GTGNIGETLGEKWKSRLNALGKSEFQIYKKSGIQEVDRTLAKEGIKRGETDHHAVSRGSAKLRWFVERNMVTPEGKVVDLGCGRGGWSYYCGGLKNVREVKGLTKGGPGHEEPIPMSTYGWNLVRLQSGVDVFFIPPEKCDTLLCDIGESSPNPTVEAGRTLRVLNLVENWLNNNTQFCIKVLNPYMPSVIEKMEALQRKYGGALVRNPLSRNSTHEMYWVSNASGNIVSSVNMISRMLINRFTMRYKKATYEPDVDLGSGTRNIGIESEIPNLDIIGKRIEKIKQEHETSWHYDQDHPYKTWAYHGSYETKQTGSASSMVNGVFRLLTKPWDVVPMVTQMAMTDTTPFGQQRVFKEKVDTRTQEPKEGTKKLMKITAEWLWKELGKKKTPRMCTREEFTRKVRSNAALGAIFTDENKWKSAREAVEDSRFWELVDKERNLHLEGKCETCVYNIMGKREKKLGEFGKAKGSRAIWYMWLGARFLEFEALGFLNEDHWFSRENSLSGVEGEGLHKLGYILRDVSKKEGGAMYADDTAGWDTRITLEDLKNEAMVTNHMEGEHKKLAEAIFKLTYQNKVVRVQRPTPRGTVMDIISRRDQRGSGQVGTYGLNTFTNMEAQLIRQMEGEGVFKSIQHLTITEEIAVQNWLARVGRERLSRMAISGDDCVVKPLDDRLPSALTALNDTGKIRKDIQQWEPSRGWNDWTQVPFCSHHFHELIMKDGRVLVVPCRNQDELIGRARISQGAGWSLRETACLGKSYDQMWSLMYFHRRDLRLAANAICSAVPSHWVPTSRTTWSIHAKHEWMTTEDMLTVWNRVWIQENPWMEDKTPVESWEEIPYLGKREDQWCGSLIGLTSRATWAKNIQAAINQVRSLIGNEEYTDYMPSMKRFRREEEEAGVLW
Chain of Paired box protein Pax-8 (Q06710 whole entry): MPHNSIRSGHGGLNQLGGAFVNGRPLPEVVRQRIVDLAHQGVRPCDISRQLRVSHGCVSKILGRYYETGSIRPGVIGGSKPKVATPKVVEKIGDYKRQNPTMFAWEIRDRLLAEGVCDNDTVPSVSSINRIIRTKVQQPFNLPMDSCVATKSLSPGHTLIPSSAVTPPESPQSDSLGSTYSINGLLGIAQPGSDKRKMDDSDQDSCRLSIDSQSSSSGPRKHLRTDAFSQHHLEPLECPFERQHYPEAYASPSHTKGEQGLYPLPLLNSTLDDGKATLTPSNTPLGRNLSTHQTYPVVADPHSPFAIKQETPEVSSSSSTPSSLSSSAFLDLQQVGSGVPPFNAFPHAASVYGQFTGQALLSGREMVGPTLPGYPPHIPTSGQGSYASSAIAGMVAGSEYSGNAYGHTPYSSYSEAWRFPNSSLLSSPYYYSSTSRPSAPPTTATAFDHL

Cc1ccc(NC(=O)c2cc(=O)c3ccccc3o2)cc1S(=O)(=O)N1CCCCC1
EC50 [1]: > 20 µM (inactive)
EC50 (HEK293 [2]): 8.74 µM (active)
IC50 (HEK293 [3]): > 20 µM (inactive)
IC50 (HEK293 [4]): > 20 µM (inactive)
IC50 (HEK293 [5]): 9.78 µM (active)

CC(C)N1C/C(=C/c2ccsc2)C(=O)/C(=C/c2ccsc2)C1
EC50 [6]: 1.34 µM (active)
EC50 [7]: 1.39 µM (active)
CC50 (Vero [8]): 5.33 µM (active)
IC50 (Vero [9]): > 25 µM (active)

Cc1ccc2nc(C)c(CN3CCN(c4ccc([N+](=O)[O-])cc4Cl)CC3)n2c1
AC50 (INS1): 1.79 µM (active)
EC50 [10]: > 120 µM (not active)
IC50 [11]: > 80 µM (inactive)
EC50 [12]: 17.1 µM (active)
EC50 [13]: > 120 µM (not active)

Cc1ccc(-c2nn(-c3ccccc3)cc2/C=C/C(=O)O)o1
IC50 [14]: 17.6 µM (active)
IC50 [15]: 30.9 µM (active)

Clc1ccccc1-c1cc(NCc2ccccc2)ncn1
AC50 (Cytochrome P450 2D6): 20 µM (inconclusive)
AC50 (Cytochrome P450 3A4): inconclusive

COc1ccc(N2C(=O)CC(Sc3nnnn3-c3ccc(F)cc3)C2=O)cc1 (stereo not given)
IC50 [14]: 11 µM (active)
AC50 [16]: 26.6 µM (active)
IC50 [15]: 3.95 µM (active)
EC50 [17]: 17.1 µM (active)
AC50 (Paired box protein Pax-8): 13.6 µM (active)

NNc1cc([N+](=O)[O-])cc2c1c(=O)n(Cc1ccccc1)[s+]2[O-] (stereo not given)
IC50 [14]: 10.3 µM (active)
IC50 (Genome polyprotein): 63.4 µM (active)
IC50 [15]: > 50 µM (inactive)
IC50 [18]: 52.3 µM (active)

CC(C)c1ccc(/C=C2\SC(=S)N(CCC(=O)N3CCCCC3CCO)C2=O)cc1 (stereo not given)
IC50 [19]: 72.4 µM (inactive)
AC50 [20]: 7.43 µM (active)

CS(=O)(=O)Nc1ccc(S(=O)(=O)N2CCOCC2)cc1
AC50 (Cytochrome P450 3A4): inconclusive
